Reference: patent EP3072956A1, “Selective culture medium for polymyxin-resistant, gram-negative bacteria” (priority 2015, dated 2016)

Key:
Test in all cases: MIC determination by broth microdilution (MHB-CA, CLSI)
Type in all cases: cell-based
S. marcescens = details: strain Smar
Protocol: (§1) Determination of MIC values were performed by broth microdilution in Cation-Adjusted Mueller-Hinton broth (MHB-CA) according to the CLSI guidelines (Clinical and Laboratory Standards Institute). Polymyxin B and colistin (Sigma-Aldrich, Saint-Louis) were tested with or without Tween 80 over a range dilution from 0.12 to 128 µg/ml. The surfactant Tween 80, at a final concentration of 0.002%, prevents the binding of polymyxins to multi-array plastic panel. Actually, the use of Tween for determination of MIC of polymyxins is still debatable. MHB-CA broth and 5.10^5 CFU/ml of each tested strain were distributed in each well. Following the EUCAST breakpoints, strains were characterized as susceptible or resistant to polymyxins.

E. coli = test system: E. coli
Protocol: as §1

E. cloacae = test system: E. cloacae
Protocol: as §1

H. alvei = details: strain ER
Protocol: as §1

P. stuartii = details: strain Pstu
Protocol: as §1

S. maltophilia = test system: S. maltophilia
Protocol: as §1

B. cepacia = details: strain Bcep
Protocol: as §1

C. freundii = test system: C. freundii
Protocol: as §1

P. aeruginosa = test system: P. aeruginosa
Protocol: as §1

P. mirabilis = details: strain Pmir
Protocol: as §1

K. oxytoca = details: strain C24
Protocol: as §1

K. pneumoniae = test system: K. pneumoniae
Protocol: as §1

E. aerogenes = details: strain 36F8
Protocol: as §1

M. morganii = details: strain Mmor
Protocol: as §1

Measured: MIC

polymyxin B
64 mg/L: K. oxytoca; With Tween80 | K. oxytoca; Without Tween80 | K. pneumoniae; strain 12E2, With Tween80 | K. pneumoniae; strain 12E2, Without Tween80 | K. pneumoniae; strain 13G2, With Tween80 | K. pneumoniae; strain 13G2, Without Tween80 | K. pneumoniae; strain C1, With Tween80 | K. pneumoniae; strain C11, With Tween80 | K. pneumoniae; strain C12, With Tween80 | K. pneumoniae; strain C16, With Tween80 | K. pneumoniae; strain C22, With Tween80 | K. pneumoniae; strain C22, Without Tween80 | K. pneumoniae; strain C25, Without Tween80 | K. pneumoniae; strain Sa, With Tween80 | K. pneumoniae; strain Sa, Without Tween80 | K. pneumoniae; strain T1b, With Tween80 | K. pneumoniae; strain T1b, Without Tween80
4 mg/L: E. coli; strain 27852, With Tween80 | E. coli; strain 27852, Without Tween80 | E. coli; strain 30742, With Tween80 | E. coli; strain 30742, Without Tween80
8 mg/L: E. coli; strain 27563, With Tween80 | E. coli; strain 27837, With Tween80 | E. coli; strain 27837, Without Tween80 | E. coli; strain 27850, With Tween80 | E. coli; strain 27850, Without Tween80 | H. alvei; Without Tween80 | K. pneumoniae; strain AF1b, With Tween80 | K. pneumoniae; strain AF1b, Without Tween80
0.12 mg/L: E. coli; strain 36A6, With Tween80 | E. coli; strain 36A6, Without Tween80 | E. coli; strain 36D7, With Tween80 | E. coli; strain 36D7, Without Tween80 | E. coli; strain 38D6, With Tween80 | E. coli; strain 38D6, Without Tween80 | E. coli; strain ATCC 25922, With Tween80 | E. coli; strain C140, With Tween80 | E. coli; strain Eco OmpC-OmpF-, With Tween80 | E. cloacae; strain C144, With Tween80 | P. aeruginosa; strain ATCC 27853, With Tween80 | K. pneumoniae; strain 36A5, With Tween80 | K. pneumoniae; strain 36A5, Without Tween80 | K. pneumoniae; strain 38B7, Without Tween80 | K. pneumoniae; strain C115, With Tween80 | K. pneumoniae; strain Kp OmpK3 5-OmpK3 6-, With Tween80 | E. aerogenes; With Tween80 | E. aerogenes; Without Tween80
>128 mg/L: S. marcescens; With Tween80 | S. marcescens; Without Tween80 | E. cloacae; strain HM, With Tween80 | E. cloacae; strain HM, Without Tween80 | P. stuartii; With Tween80 | P. stuartii; Without Tween80 | S. maltophilia; strain Sm2, With Tween80 | S. maltophilia; strain Sm2, Without Tween80 | B. cepacia; With Tween80 | B. cepacia; Without Tween80 | P. mirabilis; With Tween80 | P. mirabilis; Without Tween80 | K. pneumoniae; strain C7, With Tween80 | K. pneumoniae; strain C7, Without Tween80 | K. pneumoniae; strain C27, With Tween80 | K. pneumoniae; strain C27, Without Tween80 | M. morganii; With Tween80 | M. morganii; Without Tween80
0.125 mg/L: E. coli; strain Eco OmpC-OmpF-, Without Tween80 | K. pneumoniae; strain Kp OmpK3 5-OmpK3 6-, Without Tween80
1 mg/L: P. aeruginosa; strain 38J8, Without Tween80 | P. aeruginosa; strain C111, Without Tween80 | P. aeruginosa; strain C131, Without Tween80 | P. aeruginosa; strain C133, Without Tween80
128 mg/L: K. pneumoniae; strain 75b, With Tween80 | K. pneumoniae; strain 75b, Without Tween80 | K. pneumoniae; strain BICb, With Tween80 | K. pneumoniae; strain BICb, Without Tween80 | K. pneumoniae; strain C1, Without Tween80 | K. pneumoniae; strain C11, Without Tween80 | K. pneumoniae; strain C12, Without Tween80 | K. pneumoniae; strain C21, With Tween80 | K. pneumoniae; strain C21, Without Tween80 | K. pneumoniae; strain C26, With Tween80 | K. pneumoniae; strain C26, Without Tween80
0.25 mg/L: E. coli; strain ATCC 25922, Without Tween80 | E. coli; strain C140, Without Tween80 | E. cloacae; strain 38A10, With Tween80 | E. cloacae; strain 38A10, Without Tween80 | E. cloacae; strain C129, With Tween80 | E. cloacae; strain C129, Without Tween80 | E. cloacae; strain C144, Without Tween80 | C. freundii; strain C136, With Tween80 | P. aeruginosa; strain 38J8, With Tween80 | P. aeruginosa; strain C111, With Tween80 | P. aeruginosa; strain C131, With Tween80 | K. pneumoniae; strain 36A4, With Tween80 | K. pneumoniae; strain 36A4, Without Tween80 | K. pneumoniae; strain C112, With Tween80 | K. pneumoniae; strain C112, Without Tween80 | K. pneumoniae; strain C130, Without Tween80 | K. pneumoniae; strain C132, Without Tween80
0.5 mg/L: C. freundii; strain 38B2, With Tween80 | C. freundii; strain 38B2, Without Tween80 | C. freundii; strain C136, Without Tween80 | P. aeruginosa; strain ATCC 27853, Without Tween80 | P. aeruginosa; strain C133, With Tween80 | K. pneumoniae; strain 36A7, With Tween80 | K. pneumoniae; strain 36A7, Without Tween80 | K. pneumoniae; strain 38B7, With Tween80 | K. pneumoniae; strain C115, Without Tween80 | K. pneumoniae; strain C130, With Tween80 | K. pneumoniae; strain C132, With Tween80
16 mg/L: E. coli; strain 27563, Without Tween80 | E. cloacae; strain C28, With Tween80 | E. cloacae; strain C28, Without Tween80 | H. alvei; With Tween80 | K. pneumoniae; strain C3, With Tween80
2 mg/L: E. coli; strain 28509, With Tween80 | E. coli; strain 28509, Without Tween80
32 mg/L: S. maltophilia; strain SmA51, With Tween80 | S. maltophilia; strain SmA51, Without Tween80 | K. pneumoniae; strain 18J1, With Tween80 | K. pneumoniae; strain 18J1, Without Tween80 | K. pneumoniae; strain 1118, With Tween80 | K. pneumoniae; strain 1118, Without Tween80 | K. pneumoniae; strain 1515, With Tween80 | K. pneumoniae; strain 1515, Without Tween80 | K. pneumoniae; strain C3, Without Tween80 | K. pneumoniae; strain C16, Without Tween80 | K. pneumoniae; strain C25, With Tween80 | K. pneumoniae; strain T4, With Tween80 | K. pneumoniae; strain T4, Without Tween80 | K. pneumoniae; strain T5, With Tween80 | K. pneumoniae; strain T5, Without Tween80
